# Literature values as cited in patent publication US10624840B2, “Method for performing cosmetic surgical procedures using tumescent anesthesia and oral sedation” (priority 2017, dated 2020).
# System: patient
# Conditions: oral
structure (smiles),measurement,value
"O=C1Nc2ccc(Cl)cc2C(c2ccccc2Cl)=NC1O (stereo not shown) [Lorazepam, lorazepam]",duration of lasting effects on a patient,10 to 20 h
